Reference: patent US8476036B2, “Nonluminogenic assay for living cells” (Promega Corporation, priority 2004, dated 2013)

Tests used:
Format in all cases: cell-based
HL-60 or Jurkat [1] = experiment: Protease retention substrate selectivity, untreated viable cells; design: key: None denotes no statistical activity above control population.; (+) to (+++++) denotes the range of activity above control population from modest to robust; (+) to (+++++) denotes the range of activity above control population from modest to robust; (+) to (+++++) denotes the range of activity above control population from modest to robust; (+) to (+++++) denotes the range of activity above control population from modest to robust; (+) to (+++++) denotes the range of activity above control population from modest to robust; conditions: substrate cleavage activity above control in untreated viable cells; 15-30 minutes at 37° C.
Text: (§1) Ala-Ala-Phe-AMC was obtained from Promega. Z-Leu-Leu-Val-Tyr-aminoluciferin (LLVY corresponds to SEQ ID NO:18), Z-Leu-Arg-aminoluciferin, Z-Phe-Arg-aminoluciferin, Ala-Ala-Phe-aminoluciferin, (Ala-Ala-Phe)2-R110, and (Gly-Phe)2-R110 were synthesized by Promega Biosciences. Suc-Ala-Ala-Phe-AMC, H-Phe-AMC, H-Tyr-AMC, Glutyl-Ala-Ala-Phe-AMC (EMF corresponds to SEQ ID NO:32), H-Gly-Phe-AMC, Z-Gly-Ala-Met-AMC, Suc-Leu-Leu-Val-Tyr-AMC (LLVY corresponds to SEQ ID NO:18), D-Ala-Leu-Lys-AMC, H-Gly-Ala-AMC, H-Gly-Gly-AMC, Suc-Ala-Ala-Phe-AMC, Z-Arg-Leu-Arg-Gly-Gly-AMC (RLRGG corresponds to SEQ ID NO:29), Z-Leu-Arg-Gly-Gly-AMC (LRGG corresponds to SEQ ID NO:30) and Ac-Ala-Ala-Tyr-AMC were sourced from Bachem. Gly-Phe-AFC, Pro-Phe-Arg-AMC, Gly-Gly-Leu-AMC, and Ser-Tyr-AFC were obtained from Calbiochem. Z-Phe-Arg-AMC and Suc-Arg-Pro-Phe-His-Leu-Leu-Val-Tyr-AMC (RPHLLVY corresponds to SEQ ID NO:31) were purchased from Sigma.
(§2) All substrates were solubilized in DMSO from 10 to 100 mM depending upon inherent solubility. Fluorescent substrates were diluted to 100 μM to 1 mM in 10 mM Hepes, pH 7.5 or matched cell culture medium with 10% serum and added in 1/10th volumes to lysed (freeze fractured, sonicated, or detergent) or untreated viable cells in white-walled, clear bottomed 96-well plates. HL-60 or Jurkat were used in the experimentation interchangeably because of their easily manipulated suspension phenotype. Plates were incubated for 15-30 minutes at 37° C. prior to measuring fluorescence by the CYTOFLUOR® II.
(§3) Luminescent substrates were added to a luciferin detection cake (Promega V859A) resuspended in 2 ml 10 mM Hepes, pH 7.5 to 500 μM. ⅕^th volume of the proluminescent reaction mixes were added to lysed (freeze fractured, sonicated, or detergent) or untreated viable cells in white-walled, clear bottomed 96-well plates. Again, HL-60 or Jurkat were used in the experimentation interchangeably. Plates were incubated at 37° C. in a MeCour' circulating heat block controlled by a Caron 2050W exchange unit. Luminescence was measured between 15 and 30 minutes (signal steady state).
(§4) A broad variety of proteolytic substrates were examined in an effort to characterize potential substrate preferences for protease release or retention in compromised or viable cells (see Table 4). […] Non-blocked substrates (H- and the like) were examined to include the contribution of aminopeptidase activities. From this panel, at least three proteolytic profiles emerged: an aminopeptidase-like activity preferring unblocked Ala-Ala-Phe tripeptide, a proteosomal (chymotrypsin-like) activity measured by release of blocked Leu-Leu-Val-Tyr (SEQ ID NO:18) peptides, and an exceedingly labile activity by Gly-Phe, Gly-Ala, Phe-, Tyr- or Gly-Gly-Leu substrates. The latter activities were only measurable in viable, intact cells. Of further significance is that several fluorophores or proluminescent labels can be used to detect these activities, ultimately allowing for enhanced downstream multiplexing flexibility.

HL-60 or Jurkat [2] = experiment: Protease release substrate selectivity, lysed (freeze fractured, sonicated, or detergent) cells; design: key: None denotes no statistical activity above control population.; (+) to (+++++) denotes the range of activity above control population from modest to robust; (+) to (+++++) denotes the range of activity above control population from modest to robust; (+) to (+++++) denotes the range of activity above control population from modest to robust; (+) to (+++++) denotes the range of activity above control population from modest to robust; (+) to (+++++) denotes the range of activity above control population from modest to robust; conditions: substrate cleavage activity above control in lysed cells; 15-30 minutes at 37° C.
Text: as §1, §2, §3, §4

Jurkat cells = experiment: Protease retention assay formats with different peptide sequences and reporters; conditions: viable versus lysed cells
Method: Actively doubling Jurkat cells were serially diluted from 37,500 cells/well in RPMI 1640+10% FBS in a white-walled, clear bottomed 96 well plate in 100 μl volumes. The cells in half of the plate were lysed with the addition of Triton X to 0.2% final. The other half of the plate wells received a matched volume (5 μl) of water vehicle. Tyr-AMC, Phe-AMC and Gly-Phe-AFC were all rehydrated in DMSO to 100 mM then diluted in RPMI 1640 to 1 mM. 1/10th volume of diluted substrates were added to the wells, mixed briefly by orbital shaking then incubated at 37° C. in 5% CO2 for up to 1.5 hours. Resulting fluorescence was measured at Ex. 360 Em. 460 and Ex. 405 and Em. 500 at 30 and 90 minutes.

SK-MEL-28 cells = experiment: Live cell protease retention multiplexed with caspase 3/7 activity, SK-MEL-28; conditions: SK-MEL-28, serial dilutions, 5 hours
Method: (§5) SK-MEL-28 or ACHN cells were seeded into white-walled, clear bottomed 96 well plates at a density of 10,000 cells per well in 100 μl volumes and allowed to attach at 37° C. in 5% CO2 for a period of 2 hours. After attachment, 50 μl of medium was carefully removed and replaced with serial dilutions of either ionomycin or staurosporine in MEM+10% FBS. Medium only served as control. The plate was incubated for an additional 5 hours. A 1 mM solution of Gly-Phe-AFC was made in MEM and added to the wells in a 1/10th volume. Resulting fluorescence was measured using a CYTOFLUOR® II. Caspase-GIo™ 3/7 reagent was then added and luminescence measure using a BMG FLUOstar Optima.

ACHN cells = experiment: Live cell protease retention multiplexed with caspase 3/7 activity, ACHN; conditions: serial dilutions, 5 hours
Method: as §5

Structure (SMILES) | Retention (HL-60 or Jurkat [1]) | Release (HL-60 or Jurkat [2]) | Suitability as live cell protease retention substrate (Jurkat cells) | Cytotoxicity profile (live cell fluorescence and caspase 3/7 activity) (SK-MEL-28 cells) | Cytotoxicity profile (live cell fluorescence and caspase 3/7 activity) (ACHN cells)
NCC(=O)N[C@@H](Cc1ccccc1)C(=O)Nc1ccc2c(c1)Oc1cc(NC(=O)[C@H](Cc3ccccc3)NC(=O)CN)ccc1C21OC(=O)c2ccccc21 [(Gly-Phe)2 R110, (Gly-Phe)2-R110] | None | None | apparently unable to effectively traverse the cell membrane or was not effectively cleaved by the candidate protease |  | 
CN[C@@H]1C[C@H]2O[C@@](C)([C@@H]1OC)n1c3ccccc3c3c4c(c5c6ccccc6n2c5c31)C(=O)NC4 [staurosporine] |  |  |  | caspase activation (and therefore apoptosis induction) is evident | apoptotic profile
